≈ marks a conversion by molar mass, not a printed value.
Assays:
Assay in all cases: In vitro antibacterial evaluation: minimum inhibitory concentration (MIC), broth dilution method
Format in all cases: cell-based
Enterococcus sp. = conditions: 18 hours at 35° C.
Method in brief: (§1)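 Using Muller-Hinton II […] and an inoculum of 5×10^5 CFU/mL, antibiotic dilutions from 64 down to 0.06 μg/mL were tested following NCCLS M7-A2. The MIC is the lowest concentration inhibiting growth, including in methicillin-, penicillin- or vancomycin-resistant clinical isolates.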

Escherichia coli = conditions: 18 hours at 35° C.
Method in brief: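 NCCLS M7-A2 broth dilution; Muller-Hinton II […]; 5×10^5 CFU/mL; 64-0.06 μg/mL. MIC = lowest concentration with no growth.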

Staphylococcus sp. = tested on: Staphylococcus sp.
Method in brief: as §1

Streptococcus sp. = conditions: 18 hours at 35° C.
Method in brief: as §1

[1] = Enterococcus faecalis (ATCC 29212)
[2] = Enterococcus faecalis (GC 2242)
[3] = Enterococcus faecalis (GC 4552)
[4] = Enterococcus faecalis (GC 4553)
[5] = Enterococcus faecalis (GC 4554)
[6] = Streptococcus agalactiae (GC 4564)
[7] = Streptococcus pneumoniae (GC 4565)
[8] = broth dilution, inoculum 5×10^5 CFU/mL

## α-O-[(Butylamino)carbonyl]-cyclo[glycyl-β-methylphenylalanyl-O-(4-O-hexopyranosylhexopyranosyl)tyrosyl-3-(2-iminoimidazolidin-4-yl)seryl-3-(3-hexopyranosyl-2-iminoimidazolidin-4-yl)serylseryl] [Example 252]
Enterococcus sp.; Enterococcus avium (GC 4558)
  MIC Enterococcus avium (GC 4558): >64 µg/mL
Enterococcus sp.; [1]
  MIC Enterococcus faecalis (ATCC 29212): >64 µg/mL
Enterococcus sp.; [2]
  MIC Enterococcus faecalis (GC 2242): >64 µg/mL
Enterococcus sp.; [3]
  MIC Enterococcus faecalis (GC 4552): >64 µg/mL
Enterococcus sp.; [4]
  MIC Enterococcus faecalis (GC 4553): >64 µg/mL
Enterococcus sp.; [5]
  MIC Enterococcus faecalis (GC 4554): >64 µg/mL
Enterococcus sp.; Enterococcus faecium (GC 2243)
  MIC Enterococcus faecium (GC 2243): >64 µg/mL
Enterococcus sp.; Enterococcus faecium (GC 4556)
  MIC Enterococcus faecium (GC 4556): >64 µg/mL
Enterococcus sp.; Enterococcus faecium (GC 4557)
  MIC Enterococcus faecium (GC 4557): >64 µg/mL
Escherichia coli
  MIC Escherichia coli (ATCC 25922): >64 µg/mL
Staphylococcus sp.; Coagulase Negative Staphylococcus (GC 4547), 18 hours at 35° C.
  MIC Coagulase Negative Staphylococcus (GC 4547): >64 µg/mL
Staphylococcus sp.; Coagulase Negative Staphylococcus (GC 4548), 18 hours at 35° C.
  MIC Coagulase Negative Staphylococcus (GC 4548): >64 µg/mL
Staphylococcus sp.; Coagulase Negative Staphylococcus (GC 4549), 18 hours at 35° C.
  MIC Coagulase Negative Staphylococcus (GC 4549): >64 µg/mL
Staphylococcus sp.; Coagulase Negative Staphylococcus (GC 4551), 18 hours at 35° C.
  MIC Coagulase Negative Staphylococcus (GC 4551): >64 µg/mL
Staphylococcus sp.; Coagulase Negative Staphylococcus (ID-3941), 18 hours at 35° C.
  MIC Coagulase Negative Staphylococcus (ID-3941): >64 µg/mL
Staphylococcus sp.; Staphylococcus aureus (ATCC 29213), 18 hours at 35° C.
  MIC Staphylococcus aureus (ATCC 29213): >64 µg/mL
Staphylococcus sp.; Staphylococcus aureus (GC 1131), 18 hours at 35° C.
  MIC Staphylococcus aureus (GC 1131): >64 µg/mL
Staphylococcus sp.; Staphylococcus aureus (GC 4541), 18 hours at 35° C.
  MIC Staphylococcus aureus (GC 4541): >64 µg/mL
Staphylococcus sp.; Staphylococcus aureus (GC 4542), 18 hours at 35° C.
  MIC Staphylococcus aureus (GC 4542): >64 µg/mL
Staphylococcus sp.; Staphylococcus aureus (GC 4544), 18 hours at 35° C.
  MIC Staphylococcus aureus (GC 4544): >64 µg/mL
Staphylococcus sp.; Staphylococcus aureus (GC 4545), 18 hours at 35° C.
  MIC Staphylococcus aureus (GC 4545): >64 µg/mL
Staphylococcus sp.; Staphylococcus aureus-SMITH (GC 4543), 18 hours at 35° C.
  MIC Staphylococcus aureus-SMITH (GC 4543): >64 µg/mL
Staphylococcus sp.; Staphylococcus haemolyticus (GC 4546), 18 hours at 35° C.
  MIC Staphylococcus haemolyticus (GC 4546): >64 µg/mL
Streptococcus sp.; [6]
  MIC Streptococcus agalactiae (GC 4564): >64 µg/mL
Streptococcus sp.; [7]
  MIC Streptococcus pneumoniae (GC 4565): >64 µg/mL
Streptococcus sp.; Streptococcus pyogenes (ID-3187)
  MIC Streptococcus pyogenes (ID-3187): >64 µg/mL

## CC(c1ccccc1)C1NC(=O)CNC(=O)C(CO)NC(=O)C(C(O)C2CN(c3ncccn3)C(=N)N2C2OC(CO)C(O)C(O)C2O)NC(=O)C(C(O)C2CNC(=Nc3ncccn3)N2)NC(=O)C(Cc2ccc(OC3OC(CO)C(OC4OC5COC6(OC5C(O)C4O)C4CC5CC(C4)CC6C5)C(O)C3O)cc2)NC1=O (stereo not drawn) [Example 228, Di-N-(2-(pyrimidinyl)-cyclo[glycyl-β-methylphenylalanyl-O-[4-O-[4,6-O-(2-adamantylidene)hexopyranosyl]hexopyranosyl]tyrosyl-3-[2-iminoimidazolidin-4-yl]seryl-3-β-hexopyranosyl-2-iminoimidazolidin-4-yl]serylseryl]]
Enterococcus sp.; Enterococcus avium (GC 4558)
  MIC Enterococcus avium (GC 4558): 8 µg/mL (≈ 5.05 µM)
Enterococcus sp.; [1]
  MIC Enterococcus faecalis (ATCC 29212): 32 µg/mL (≈ 20.2 µM)
Enterococcus sp.; [2]
  MIC Enterococcus faecalis (GC 2242): 32 µg/mL (≈ 20.2 µM)
Enterococcus sp.; Enterococcus faecalis (GC 2691)
  MIC Enterococcus faecalis (GC 2691): 32 µg/mL (≈ 20.2 µM)
Enterococcus sp.; Enterococcus faecalis (GC 3059)
  MIC Enterococcus faecalis (GC 3059): 32 µg/mL (≈ 20.2 µM)
Enterococcus sp.; [3]
  MIC Enterococcus faecalis (GC 4552): 32 µg/mL (≈ 20.2 µM)
Enterococcus sp.; [4]
  MIC Enterococcus faecalis (GC 4553): 16 µg/mL (≈ 10.1 µM)
Enterococcus sp.; [5]
  MIC Enterococcus faecalis (GC 4554): 32 µg/mL (≈ 20.2 µM)
Enterococcus sp.; Enterococcus faecalis (GC 6189)
  MIC Enterococcus faecalis (GC 6189): 32 µg/mL (≈ 20.2 µM)
Enterococcus sp.; Enterococcus faecium (GC 2243)
  MIC Enterococcus faecium (GC 2243): 16 µg/mL (≈ 10.1 µM)
Enterococcus sp.; Enterococcus faecium (GC 4556)
  MIC Enterococcus faecium (GC 4556): 32 µg/mL (≈ 20.2 µM)
Enterococcus sp.; Enterococcus faecium (GC 4557)
  MIC Enterococcus faecium (GC 4557): 16 µg/mL (≈ 10.1 µM)
Enterococcus sp.; [8]
  MIC Enterococcus avium (GC 4558): 8 µg/mL (≈ 5.05 µM)
  MIC Enterococcus faecalis (ATCC 29212): 32 µg/mL (≈ 20.2 µM)
  MIC Enterococcus faecalis (GC 2242): 32 µg/mL (≈ 20.2 µM)
  MIC Enterococcus faecalis (GC 2691): 32 µg/mL (≈ 20.2 µM)
  MIC Enterococcus faecalis (GC 3059): 32 µg/mL (≈ 20.2 µM)
  MIC Enterococcus faecalis (GC 4552): 32 µg/mL (≈ 20.2 µM)
  MIC Enterococcus faecalis (GC 4553): 16 µg/mL (≈ 10.1 µM)
  MIC Enterococcus faecalis (GC 4554): 32 µg/mL (≈ 20.2 µM)
  MIC Enterococcus faecalis (GC 6189): 32 µg/mL (≈ 20.2 µM)
  MIC Enterococcus faecium (GC 2243): 16 µg/mL (≈ 10.1 µM)
  MIC Enterococcus faecium (GC 4556): 32 µg/mL (≈ 20.2 µM)
  MIC Enterococcus faecium (GC 4557): 16 µg/mL (≈ 10.1 µM)
Escherichia coli
  MIC Escherichia coli (ATCC 25922): >64 µg/mL
Escherichia coli; Escherichia coli (GC 4559)
  MIC Escherichia coli (GC 4559): >64 µg/mL
Escherichia coli; Escherichia coli (GC 4560)
  MIC Escherichia coli (GC 4560): 16 µg/mL (≈ 10.1 µM)
Staphylococcus sp.; strain ATCC 29213
  MIC Staphylococcus aureus (ATCC 29213): 32 µg/mL (≈ 20.2 µM)
Staphylococcus sp.; strain GC 1131
  MIC Staphylococcus aureus (GC 1131): 32 µg/mL (≈ 20.2 µM)
Staphylococcus sp.; strain GC 3051
  MIC Staphylococcus aureus (GC 3051): 32 µg/mL (≈ 20.2 µM)
Staphylococcus sp.; strain GC 3053
  MIC Staphylococcus aureus (GC 3053): 32 µg/mL (≈ 20.2 µM)
Staphylococcus sp.; strain GC 4541
  MIC Staphylococcus aureus (GC 4541): 32 µg/mL (≈ 20.2 µM)
Staphylococcus sp.; strain GC 4542
  MIC Staphylococcus aureus (GC 4542): 32 µg/mL (≈ 20.2 µM)
Staphylococcus sp.; strain GC 4543
  MIC Staphylococcus aureus-SMITH (GC 4543): 32 µg/mL (≈ 20.2 µM)
Staphylococcus sp.; strain GC 4544
  MIC Staphylococcus aureus (GC 4544): 32 µg/mL (≈ 20.2 µM)
Staphylococcus sp.; strain GC 4545
  MIC Staphylococcus aureus (GC 4545): 32 µg/mL (≈ 20.2 µM)
Staphylococcus sp.; strain GC 4546
  MIC Staphylococcus haemolyticus (GC 4546): 16 µg/mL (≈ 10.1 µM)
Staphylococcus sp.; strain GC 4547
  MIC Coagulase Negative Staphylococcus (GC 4547): 16 µg/mL (≈ 10.1 µM)
Staphylococcus sp.; strain GC 4548
  MIC Coagulase Negative Staphylococcus (GC 4548): 16 µg/mL (≈ 10.1 µM)
Staphylococcus sp.; strain GC 4549
  MIC Coagulase Negative Staphylococcus (GC 4549): 16 µg/mL (≈ 10.1 µM)
Staphylococcus sp.; strain GC 4551
  MIC Coagulase Negative Staphylococcus (GC 4551): 16 µg/mL (≈ 10.1 µM)
Streptococcus sp.; [6]
  MIC Streptococcus agalactiae (GC 4564): 16 µg/mL (≈ 10.1 µM)
Streptococcus sp.; Streptococcus pneumoniae (ATCC 6301)
  MIC Streptococcus pneumoniae (ATCC 6301): 8 µg/mL (≈ 5.05 µM)
Streptococcus sp.; Streptococcus pneumoniae (GC 1894)
  MIC Streptococcus pneumoniae (GC 1894): 8 µg/mL (≈ 5.05 µM)
Streptococcus sp.; [7]
  MIC Streptococcus pneumoniae (GC 4565): 8 µg/mL (≈ 5.05 µM)
Streptococcus sp.; Streptococcus pyogenes (GC 4563)
  MIC Streptococcus pyogenes (GC 4563): 8 µg/mL (≈ 5.05 µM)
Streptococcus sp.; [8]
  MIC Streptococcus agalactiae (GC 4564): 16 µg/mL (≈ 10.1 µM)
  MIC Streptococcus pneumoniae (ATCC 6301): 8 µg/mL (≈ 5.05 µM)
  MIC Streptococcus pneumoniae (GC 1894): 8 µg/mL (≈ 5.05 µM)
  MIC Streptococcus pneumoniae (GC 4565): 8 µg/mL (≈ 5.05 µM)
  MIC Streptococcus pyogenes (GC 4563): 8 µg/mL (≈ 5.05 µM)

Source: patent US8247211B2, “Glycopeptide antibiotics” (American Cyanamid Company, priority 2001, dated 2012)
